Test results: the Kinase Knowledgebase extract (Sharma et al. 2016)

Molecular target: MAPK14;MAPK11;MAPK12 (human) (UniProt Q16539)
Assay: Inhibition of p38 Kinase Activity

Compound | IC50 [nM]
CC(CNc1nc(Nc2ccc3ncsc3c2)nc(N2CCN(C(=S)NC3CCCCC3)CC2)n1)c1ccccc1 (stereo not drawn) | < 10000
COc1nc(NCC(C)c2ccccc2)nc(Nc2ccc3ncsc3c2)n1 (stereo not drawn) | < 10000
Cc1ccc(C(N)=O)cc1Nc1nc(N[C@H]2CCCC[C@H]2NC(=O)CC(C)C)nc(N(C)CC(C)C)n1 | < 1000
CNC(=O)c1ccc(C)c(Nc2nc(N[C@H]3CCNC3)nc(SCC(C)C)n2)c1 | < 1000
Cc1ccc(N)cc1Nc1nc(N[C@H]2CCNC2)nc(N(C)CC(C)(C)C)n1 | < 1000
Cc1ccc(CN2CC[C@H](Nc3nc(Nc4cc(C(N)=O)ccc4C)nc(N(C)CC(C)C)n3)C2)c(C)c1 | < 1000
Cc1ccc(C(N)=O)cc1Nc1nc(N[C@H]2CCN(Cc3ccccn3)C2)nc(N(C)CC(C)C)n1 | < 1000
CONC(=O)c1ccc(C)c(Nc2nc(N(C)CCN(C)C)nc(N(C)CC(C)(C)C)n2)c1 | < 1000
Cc1ccc(-c2nc3ccccc3[nH]2)cc1Nc1nc(N[C@@H]2CCNC2)nc(N(C)CC(C)(C)C)n1 | < 1000
Cc1ccc(C(N)=O)cc1Nc1nc(NC2CCNC2)nc(NC2CCN(Cc3ccccc3)C2)n1 (stereo not drawn) | < 1000
CONC(=O)c1ccc(C)c(Nc2nc(N(C)CC(C)(C)C)nc(N3CCNCC3)n2)c1 | < 1000
COc1ncc(CN2CC[C@@H](Nc3nc(Nc4cc(C(N)=O)ccc4C)nc(N(C)CC(C)C)n3)C2)c(OC)n1 | < 1000
CC1(C)C2CCC(CNc3cc(Nc4ccc5ncsc5c4)nc(N4CCNCC4)n3)C1C2 (stereo not drawn) | < 10000
Cc1ccc(C)c(CN2CC[C@H](Nc3nc(Nc4cc(C(N)=O)ccc4C)nc(N(C)CC(C)C)n3)C2)c1 | < 1000
CONC(=O)c1ccc(C)c(Oc2nc(NCc3ccccn3)nc(N(C)CC(C)(C)C)n2)c1 | < 30000
Cc1ccc(COC(=O)C(F)(F)F)cc1Nc1nc(N[C@H]2CCNC2)nc(N(C)CC(C)C)n1 | < 1000
Cc1ccc(-c2nnco2)cc1Nc1nc(N[C@@H]2CCNC2)nc(N(C)CC(C)(C)C)n1 | < 1000
Cc1ccc(C(N)=O)cc1Nc1nc(NC2CCS(=O)(=O)C2)nc(N(C)CC(C)(C)C)n1 (stereo not drawn) | < 1000
CNCCN(C)c1nc(NCc2ccc(Cl)c(Cl)c2)nc(Nc2ccc3ncsc3c2)n1 | < 10000
Cc1ccc(C(N)=O)cc1Nc1nc(NC2CCN(Cc3ccccc3)C2)nc(N[C@H]2CCNC2)n1 (stereo partly drawn) | < 1000
CC1(C)[C@H]2CC[C@H](CNc3nc(Nc4ccc5ncsc5c4)nc(N4CCNCC4)n3)[C@@H]1C2 | < 10000
CC(CNc1nc(Cl)nc(Nc2ccc3ncsc3c2)n1)c1ccc(Cl)cc1 (stereo not drawn) | < 10000
Cc1ccc(C(N)=O)cc1Nc1nc(O)nc(NC2CCCC2)n1 | < 1000

Compound | IC50 [nM]
CNc1nc(NCc2ccc(F)cc2F)nc(Nc2ccc3ncsc3c2)n1 | < 10000
CNC(=O)c1ccc(C)c(Nc2nc(N[C@H]3CCNC3)nc(N(C)CC3CCCC3)n2)c1 | < 1000
CCOC(=O)N1CCC(N(C)c2nc(Nc3cc(C(N)=O)ccc3C)nc(N(C)CC(C)C)n2)C1 (stereo not drawn) | < 1000
Cc1ccc(C(N)=O)cc1Sc1nc(N(C)CC(C)(C)C)nc(N2CCCN(C)CC2)n1 | < 30000
CC1(C)[C@H]2CC[C@@H](CNc3nc(Nc4ccc5ncsc5c4)nc(N4CCNCC4)n3)[C@@H]1C2 | < 10000
Cc1ccc(Nc2nc(NC[C@@H]3CC[C@H]4C[C@@H]3C4(C)C)nc(N3CCCNCC3)n2)cc1C(N)=O | < 10000
Cc1ccc(C(N)=O)cc1Nc1nc(NCC2CCNCC2)nc(NC2CCCC2)n1 | < 1000
Cc1ccc(C(N)=O)cc1Nc1nc(NC2CCCNC2)nc(N(C)CC(C)C)n1 (stereo not drawn) | < 1000
CCONC(=O)c1ccc(C)c(Nc2cc(N(C)CC(C)(C)C)nc(N3CCCN(C)CC3)n2)c1 | < 1000
CNCCN(C)c1nc(NC[C@H](C)c2ccccc2)nc(Nc2ccc3ncsc3c2)n1 | < 10000
Cc1ccc(C(N)=O)cc1Nc1nc(N[C@@H]2CCNC2)nc(N(C)CC2(C)CCCC2)n1 | < 1000
CNC(=O)c1ccc(C)c(Sc2nc(NCc3ccccn3)nc(N(C)CC(C)(C)C)n2)c1 | < 30000
CC(CNc1nc(N)nc(Nc2ccc3ncsc3c2)n1)c1ccccc1 (stereo not drawn) | < 10000
CCCCOc1nc(Nc2cc(C(N)=O)ccc2C)nc(NC2CCCC2)n1 | < 1000
Cc1ccc(C(N)=O)cc1Nc1nc(N[C@@H]2CCNC2)nc(N2CCCC(C(N)=O)C2)n1 (stereo partly drawn) | < 1000
Clc1nc(Nc2ccc3ncsc3c2)nc(N2CCc3ccccc3C2)n1 | < 10000
CC(CNc1nc(Nc2ccc3ncsc3c2)nc(N2CCCCC2)n1)c1ccccc1 (stereo not drawn) | < 10000
CONC(=O)c1ccc(C)c(Nc2nc(NCc3ccccc3)nc(N(C)CC(C)(C)C)n2)c1 | < 1000
CNC(=O)c1ccc(C(F)(F)F)c(Nc2nc(N[C@H]3CCNC3)nc(N(C)CC(C)(C)C)n2)c1 | < 1000
Cc1ccc(C(N)=O)cc1Nc1nc(NC2CCCC2)nc(NC2CCN(Cc3ccccc3)C2)n1 (stereo not drawn) | < 1000
Cc1ccc(CO)cc1Nc1nc(N[C@H]2CCNC2)nc(N(C)CC(C)(C)C)n1 | < 1000
Cc1ccc(C(N)=O)cc1Nc1nc(NC2CCCNC2)nc(N(C)CC(C)(C)C)n1 (stereo not drawn) | < 1000
CC(CNc1nc(Nc2ccc3ncsc3c2)nc(N2CC3CC2CN3C(=O)c2ccco2)n1)c1ccccc1 (stereo not drawn) | < 10000

Other lines, results leading:

IC50 [nM] | Compound
< 1000 | CCCCN(C)c1nc(Nc2cc(C(N)=O)ccc2C)nc(N[C@H]2CCNC2)n1
< 10000 | CN(CCN(C)c1nc(NCC2CCC3CC2C3(C)C)nc(Nc2ccc3ncsc3c2)n1)C(=O)CCC(=O)O (stereo not drawn)
< 10000 | CC(CNc1nc(Nc2ccc3ncsc3c2)nc(N(C)CCCN(C)C(=O)C2CCOC2)n1)c1ccccc1 (stereo not drawn)
< 30000 | CN(CC(C)(C)C)c1nc(N[C@@H]2CCNC2)nc(Sc2cc(C(N)=O)ccc2F)n1
< 1000 | CNC(=O)c1ccc(C)c(Nc2nc(N[C@H]3CCNC3)nc(N(C)CC(C)C)n2)c1
< 1000 | Cc1ccc(C(N)=O)cc1Nc1nc(N[C@H]2CCN(Cc3cccc(C#N)c3)C2)nc(N(C)CC(C)C)n1
< 10000 | CC(CNc1nc(Cl)nc(Nc2ccc3ncsc3c2)n1)c1ccccc1 (stereo not drawn)
< 1000 | Cc1ccc(CN2CC[C@H](Nc3nc(Nc4cc(C(N)=O)ccc4C)nc(N(C)CC(C)C)n3)C2)cc1
< 10000 | NC(=O)C1CCN(c2cc(Nc3ccc4ncsc4c3)nc(NC3CCC3)n2)CC1
< 10000 | CNC1CCN(c2cc(NCCOC(C)C)nc(-n3cnc4ccccc43)n2)C1 (stereo not drawn)
< 10000 | CC(CNc1nc(Nc2ccc3ncsc3c2)nc(N2CCN(S(=O)(=O)N(C)C)CC2)n1)c1ccccc1 (stereo not drawn)
< 1000 | Cc1ccc(C(N)=O)cc1Nc1nc(N[C@@H]2CCN(C(C)CC(C)C)C2)nc(N(C)CC(C)(C)C)n1 (stereo partly drawn)
< 10000 | Clc1cccc(Nc2nc(Cl)nc(Nc3ccc4ncsc4c3)n2)c1
< 1000 | CONC(=O)c1ccc(C)c(Nc2nc(N(C)C)nc(N(C)CC(C)(C)C)n2)c1
< 1000 | Cc1c(Nc2nc(NC[C@@H]3CC[C@H]4C[C@H]3C4(C)C)nc(N(C)CC(C)C)n2)cccc1C(N)=O
< 1000 | Cc1ccc(C(N)=O)cc1Nc1nc(N[C@H]2CCNC2)nc(N(C)CC2CCCC2)n1
< 1000 | Cc1ccc(C(N)=O)cc1Nc1nc(CCC(C)C)nc(N[C@H]2CCNC2)n1
< 1000 | Cc1ccc(C(N)=O)cc1Nc1nc(NCC2CCNCC2)nc(NC(C)C2CCCCC2)n1 (stereo not drawn)
< 10000 | C[C@H](CNc1ncnc(Nc2ccc3ncsc3c2)n1)c1ccccc1
< 30000 | CONC(=O)c1ccc(C)c(Sc2nc(NCc3ccccn3)nc(N(C)CC(C)(C)C)n2)c1
< 10000 | NC(=O)CNc1nc(NCCc2ccccc2)nc(Nc2ccc3ncsc3c2)n1
< 1000 | Cc1ccc(C(N)=O)cc1Nc1nc(NCCc2ccc(F)cc2)nc(N[C@H]2CCNC2)n1
< 1000 | CC1(C)[C@@H]2CC[C@@H](CNc3nc(NC4CCNCC4)nc(N4CCc5ccc([N+](=O)[O-])cc54)n3)[C@H]1C2
< 10000 | CCNC(=O)N1CC2CC1CN2c1nc(NCC(C)c2ccccc2)nc(Nc2ccc3ncsc3c2)n1 (stereo not drawn)

IC50 [nM] | Compound
< 10000 | CC1(C)C2CCC(CNc3nc(Nc4ccc5scnc5c4)nc(N4CCNCC4)n3)C1C2 (stereo not drawn)
< 30000 | CN1CCCN(c2nc(Sc3cc(C(N)=O)ccc3F)nc(N(C)CC(C)(C)C)n2)CC1
< 1000 | CONC(=O)c1ccc(C)c(Nc2nc(N[C@H]3CNC(=O)C3)nc(N(C)CC(C)(C)C)n2)c1
< 30000 | CONC(=O)c1ccc(C)c(Oc2nc(N(C)CC(C)(C)C)nc(N3CCCN(C)CC3)n2)c1
< 1000 | COc1ccc(NC(=O)c2ccc(C)c(Nc3nc(N[C@H]4CCNC4)nc(N(C)CC(C)(C)C)n3)c2)cc1
< 1000 | CCONC(=O)c1ccc(C)c(Nc2nc(NC)cc(N(C)CC(C)(C)C)n2)c1
< 10000 | O=S(=O)(Nc1ncccn1)c1ccc(Nc2nc(Cl)nc(NCCc3ccccc3)n2)cc1
< 1000 | COCCCN1CCC(Nc2nc(Nc3cc(C(N)=O)ccc3C)nc(N(C)CC(C)C)n2)C1 (stereo not drawn)
< 10000 | CCOC(=O)N1CCN(c2nc(NC[C@@H]3CC[C@H]4C[C@@H]3C4(C)C)nc(Nc3ccc4ncsc4c3)n2)CC1
< 1000 | CONC(=O)c1ccc(C)c(Nc2nc(NC(C)c3ccccn3)nc(N(C)CC(C)(C)C)n2)c1 (stereo not drawn)
< 1000 | CCNC(=O)c1ccc(C)c(Nc2nc(NC[C@H]3CCCN3)nc(N(C)CC(C)C)n2)c1
< 1000 | Cc1ccc(C(N)=O)cc1Nc1nc(N[C@H]2CCN(Cc3ccccc3F)C2)nc(N(C)CC(C)C)n1
< 1000 | Cc1ccc(C(=O)NCC(F)(F)F)cc1Nc1nc(N[C@H]2CCNC2)nc(N(C)CC(C)C)n1
< 1000 | Cc1ccc(C(N)=O)cc1Nc1nc(N[C@H]2CCNC2)nc(N(C)C[C@@H]2CC[C@H]3C[C@H]2C3(C)C)n1
< 1000 | Cc1ccc(C(=O)NCc2ccccc2)cc1Nc1nc(N[C@H]2CCNC2)nc(N(C)CC(C)(C)C)n1
< 10000 | NC(=O)CNc1nc(Nc2ccc3ncsc3c2)nc(NC2CCc3ccccc32)n1 (stereo not drawn)
< 1000 | Cc1ccc(C(N)=O)cc1Nc1nc(NCC(C)C)nc(N[C@H]2CCNC2)n1
< 1000 | Cc1ccc(C(N)=O)cc1Nc1nc(N[C@@H]2CCN(C(C)C)C2)nc(N(C)CC(C)(C)C)n1
< 1000 | Cc1ccc(C(N)=O)cc1N(C)c1nc(NC2CCCC2)nc(N[C@H]2CCNC2)n1
< 1000 | Cc1ccc(C(N)=O)cc1Nc1nc(N[C@H]2CCN(Cc3ccc(C(C)C)cc3)C2)nc(N(C)CC(C)C)n1
< 1000 | Cc1ccc(C(N)=O)cc1Nc1nc(N[C@H]2CCNC2)cc(N(C)CC(C)(C)C)n1
< 1000 | Cc1ccc(C(N)=O)cc1Nc1nc(N[C@@H]2CCN(C(C)CO)C2)nc(N(C)CC(C)(C)C)n1 (stereo partly drawn)
< 10000 | CC(CNc1nc(Nc2ccc3ncsc3c2)nc(N(C)CCCN(C)C(=O)c2ccccc2)n1)c1ccccc1 (stereo not drawn)
